Laboratory results from US8026217B2, “Compositions and methods for treating neural anoxia and spreading depression” (Florida Atlantic University, priority 2007, dated 2011).
“Also recorded” adds a separate entry of the source. Where two headings read alike, the source gives them in different places.

Columns and labels:
[1] = test system: respiratory brain slices; assay: Neural function in respiratory brain slices during sodium azide-induced anoxia; parameters: species or system mouse or rat; conditions: expected
Text: Neural function in mammals (mouse or rat) is examined pharmacologically during acute anoxia in respiratory brain slices via sodium azide, which chemically induces anoxia. Following administration of the sodium azide, the time until neural failure is monitored. This is done in the presence of a PDE5 inhibitor, 8-bromo-GMP, KT5823, and Cantharidin.

[2] = test system: metathoracic ganglion of the locust; assay: Repetitive SD triggered by ouabain in locust; type: in vivo, Locusta migratoria; conditions: for number of repetitive SD-like events in animals that generated SD: ouabain exposure, FIG. 2D; for baseline [K+]o levels during ouabain exposure: pre-treatment, FIG. 2E
Text: In a second set of experiments, repetitive SD triggered by the ionic disturbance caused by ouabain (a specific inhibitor of the sodium/potassium pump that restores ionic gradients across cell membranes) was examined.
Pretreatment with a bath application of KT5823 prevented repetitive SD in 70% of animals. […] FIG. 2B illustrates a representative example in a single preparation of the eradication of repetitive SD by prior bath application of KT5823. FIG. 2C illustrates that KT5823 reduced the percentage of preparations showing repetitive SD in response to ouabain, while FIG. 2D illustrates that control and KT5823-treated preparations have fewer repetitive SD events.

[3] = test system: adult Drosophila melanogaster; type: in vivo; conditions: sitter adults, volatilized from DMSO 1 hr, 1 mM KT5823, 1 mM Cantharidin, 200 mM DCA, 10 mM 8-Bromo cGMP, 10 mM T-0156, versus DMSO sham
Procedure: FIG. 9 is a diagram illustrating in vivo treatment of adult Drosophila melanogaster with pharmacological agents. […] Adult sitters were exposed to various drugs known to target components of the PKG pathway (FIG. 8A). These drugs included: 10 mM T0156, a cGMP-specific phosphodiesterase-5 inhibitor, 10 mM 8-Bromo-cGMP, a PKG activator, 1 mM KT5823, a PKG inhibitor, 1 mM Cantharidin, a PP2A inhibitor, and 200 mM DCA, a K^+ channel activator. All drugs were solubilized in dimethyl sulfoxide (DMSO), where flies treated with only DMSO were used as sham controls. […] 10 μL of drug solution was applied to a crushed Kim wipe at the bottom of each 10 mL test vial. An additional Kim wipe was crushed over top of this to prevent direct contact between the fly and solution. 10 flies were then placed in the vial which was capped with a semi-permeable buzz-stopper, covered with a cut-out finger of a large latex glove to prevent chemical vapours from escaping, and incubated in the dark. The flies were subjected to the drug for 1 hr prior to each behavioural assay. In the drug combination experiments, 20 uL of DMSO was used as a control sham, and combinations of two pharmacological treatments were added as two separate 10 uL aliquots.
Whether or not fly PKG levels could be manipulated in vivo using a technique that uses volatilization of pharmacological agents was next examined. The role of these targets in vivo using sitter flies was examined by depositing pharmacological agents dissolved in DMSO on a cellulose tissue, and allowing them to volatize over minutes in an air tight vial at room temperature (FIG. 9). Adults were exposed to the volatilized compound for one hour in the dark and then assayed for locomotory resilience to acute hypoxia. Control sham animals (FIG. 7A) were treated with only DMSO. Compounds were chosen to target different components of the cGMP pathway (FIG. 8A) in tracheal smooth muscle and Chinese hamster ovary cells, where cGMP activates PKG, thereby activating PP2A, which then de-phosphorylates K^+ channels. The hypothesis that inhibition of this pathway would result in an increase in whole cell K^+ channel conductance, thereby leading to increased resilience to anoxic coma onset, was tested.
Locomotory Tolerance Assay during Acute Hypoxia: Ten flies (separated into males or females) from each of the three strains (rover [for^R], sitter [for^S] and for^s2) were selected and placed in three separate vials with food at least 24 hours before each experiment. At the time of the experiment, flies were emptied into 10 mL empty test vials covered with permeable sponge caps of equivalent thickness, allowing for consistent gas exchange. These test vials were then placed into a 600 mL beaker which was covered with parafilm, creating a closed chamber with an escape hole (1 cm diameter). The parafilm top was punctured with a needle connected to a gas tank (by a plastic hose), through which the inert gas argon was expelled. […] The needle tip was fastened to the bottom of the beaker and inserted into a larger sponge of similar texture to the vial sponge caps to ensure that gas expelled from the needle was dispersed equally throughout the beaker. Also, to ensure that all test vial positions in the beaker received equal gas flow, test vial positions were alternated every trial to reduce variability.
The experiment required exposing the test vials with 10 flies in the container to pure argon gas expelled from the tank at a flow rate of 600 cc/min+/−5%. Time of behavioural failure was recorded by observing the fly undergo a seizure, which was quickly followed by an anoxic coma.

[4] = test system: mammals (mouse or rat); assay: Spreading depression in mammals; type: in vivo; conditions: expected
Text: The pharmacological effects of a PDE5 inhibitor, 8-bromo-GMP, KT5823, and Cantharidin during spreading depression are examined in mammals (mouse or rat).

Row | Structure (SMILES) | time until neural failure [1] | animals in which repetitive SD was generated ([2]; concomitantly treated with 10^-4 M ouabain) [%] | number of repetitive SD-like events in animals that generated SD [2] | baseline [K+]o levels during ouabain exposure [2] | time to anoxic coma onset during acute hypoxia, single agents ([3]; listed as 8-Bromo cGMP) | time to anoxic coma onset during acute hypoxia, single agents ([3]; listed as 8-bromo cGMP) | SD-like events and neural function [4] | animals in which repetitive SD was prevented ([2]; pretreatment by bath application, then ouabain) [%] | time to anoxic coma onset during acute hypoxia, single agents [3]
1 | Nc1nc2c(nc(Br)n2[C@@H]2O[C@@H]3COP(=O)(O)O[C@H]3[C@H]2O)c(=O)[nH]1 [8-Br-cGMP] | increased sensitivity to anoxia causing early failure of neural function | 100 | significantly fewer SD-like events than 8-Br-cGMP-treated animals | did not raise the baseline [K^+]o levels above controls | exhibited significant sensitivity to anoxic coma | enhanced sensitivity to acute hypoxia; also recorded: expedited locomotory failure during acute hypoxia of sitters to rover levels | increased SD-like events causing early failure of neural function |  | 
2 | COC(=O)[C@@]1(OC)C[C@H]2O[C@]1(C)n1c3ccccc3c3c4c(c5c6ccccc6n2c5c31)C(=O)N(C)C4 [KT5823, (9S, 10R, 12R)-2,3,9,10,11,12-Hexahydro-10-methoxy-2-9-dimethyl-1-oxo-9,12-epoxy-1H-diindolo-[1,2,3-fg:3′,2′,1′-k1]pyrrolo[3,4-i][1,6]benzodiazocine-10-carboxylic acid methyl ester] | neuroprotection and prolonged neural function when subject to anoxia |  | significantly more SD-like events than KT5823-treated animals | significantly reduces the baseline [K^+]o levels |  |  | neuroprotection and reduces SD-like events thereby prolonging neural function | 70 | significant increase in tolerance to acute hypoxia; also recorded: demonstrated significant resilience to anoxic coma
